Test results reported in patent US20250161308A1, “Methods of Treating Covid-Related Disorders” (priority 2022, published 2025).
Where two headings read alike, the source gives them in different places. Where a SMILES comes first, the peptide text is derived from it. [ ]: non-standard residue; d: D form. The star is where a group is joined. Hexanoyl = CCCCCC(=O)*; Ahx = NCCCCCC(=O)O

Key:
[1] = tested on: bleomycin-induced pulmonary fibrosis in C57BL/6 mice; assay: Bleomycin-induced pulmonary fibrosis; format: in vivo, mouse
[2] = tested on: Rat hippocampal neurons; assay: Neurite outgrowth assay; format: cell-based
[3] = tested on: Rat hippocampal neurons; assay: Synaptogenesis assay; format: cell-based
[4] = tested on: LPS-induced cognitive deficit in CD-1 mice; assay: Rodent LPS model of brain inflammation, T-maze spontaneous alternation; format: in vivo, mouse; details: for Recovery (%) / Spontaneous alternation (%) Mean: LPS 250 μg/kg
[5] = tested on: pulmonary LPS-stimulated rats; assay: Cytokine expression in BALF supernatant (multiplex immunoassay), LPS acute pulmonary inflammation; format: in vivo, rat; details: 3 mg/kg IP
[6] = tested on: pulmonary LPS-stimulated rats; assay: Immune cell infiltration in BALF, LPS acute pulmonary inflammation; format: in vivo, rat; details: rat, in vivo
[7] = tested on: THP1-differentiated macrophages; format: cell-based, human; set-up: key to Significant reduction in IL-6 / Significant reduction in TNF-α / Significant reduction in IL-1β: NS: indicates a non-significant reduction in the indicated cytokine; +: indicates a p value<0.05 in Tukey post test; ++: indicates a p value<0.01 in Tukey post test; details: for Significant reduction in IL-1β / Significant reduction in IL-6 / Significant reduction in TNF-α: 24 hrs LPS
[8] = tested on: Rat primary cortical neuron cultures; format: cell-based; details: for Significance of neuroprotection vs 1 uM LPS: 24 h LPS
[9] = 100 mg/kg po BID, right lung homogenate

Compound: Cc1ccc(=O)n(-c2ccccc2)c1 [Pirfenidone, reference compound]
- Right Lung Weight, improvement versus disease control ([1]; 100 mg/kg po BID, day 21): + (+ => 5-25% improvement v disease control)
- Collagen, improvement versus disease control [1, 9]: ++ (++ => 26-50% improvement v disease control)
- TGF-Beta, improvement versus disease control [1, 9]: +++ (+++ => 51-100% improvement v disease control)
- protection against bleomycin-induced increases in TGF-β (in words) ([1]; all doses, day 21): significantly protected against bleomycin-induced increases in TGF-β
- protection against body weight loss (in words) ([1]; all treatment groups): did not protect against body weight loss

Compound: C[C@]12CCC(=O)C[C@@H]1CC[C@@H]1[C@@H]2CC[C@]2(C)[C@@H](O)CC[C@@H]12 [DHT, alpha-dihydrotestosterone, reference compound]
- Significant increase in: Neurite length [2]: + (key: NS = not significant; + = p < 0.05; ++++ = p < 0.0001)

Compound: HGF: hepatocyte growth factor, used as a positive control at 5 ng/ml
- neurite length / extension of neurites (in words) [2]: increase both neurite length and synapse count
- Significant increase in: Neurite length ([2]; 5 ng/ml, Table 4 study): +++ (+++ = p < 0.0005)
- synapse counts (in words) [3]: increase both neurite length and synapse count
- Significant increase in: Synapses ([3]; 5 ng/ml, Table 4 study): ++++ (++++ = p < 0.0001)

Compound: CC12CC3CC(C)(C1)CC(N)(C3)C2 [Memantine, reference compound]
- Recovery (%) ([4]; 0.1 mg/kg i.p. 14 days): 76%
- Spontaneous alternation (%) Mean ([4]; 0.1 mg/kg i.p. 14 days): 63.6%
- Spontaneous alternation (%) Mean ([4]; 0.1 mg/kg i.p. 14 days, listed as memantine): 64%
- Recovery (%) ([4]; 1 mg/kg i.p. 14 days): 38%
- Spontaneous alternation (%) Mean ([4]; 1 mg/kg i.p. 14 days): 54.3%
- Spontaneous alternation (%) Mean ([4]; 1 mg/kg i.p. 14 days, listed as memantine): 54%
- significance of reversal of LPS-induced cognitive deficit (in words) ([4]; T-maze): significant at both doses

Compound: C[C@@H]1C[C@H]2[C@@H]3CCC4=CC(=O)C=C[C@]4(C)[C@@]3(F)[C@@H](O)C[C@]2(C)[C@@]1(O)C(=O)CO [Dex, Dexamethasone]
- CCL2, significant change in expression in BALF supernatant [5]: + (+ = Significant change in cytokine quantification, p < 0.05 by Student's T-test.)
- CCL3, significant change in expression in BALF supernatant [5]: + (+ = Significant change in cytokine quantification, p < 0.05 by Student's T-test.)
- CCL5, significant change in expression in BALF supernatant [5]: + (+ = Significant change in cytokine quantification, p < 0.05 by Student's T-test.)
- CCL11, significant change in expression in BALF supernatant [5]: + (+ = Significant change in cytokine quantification, p < 0.05 by Student's T-test.)
- CX3CL1, significant change in expression in BALF supernatant [5]: + (+ = Significant change in cytokine quantification, p < 0.05 by Student's T-test.)
- CXCL1, significant change in expression in BALF supernatant [5]: + (+ = Significant change in cytokine quantification, p < 0.05 by Student's T-test.)
- CXCL5, significant change in expression in BALF supernatant [5]: + (+ = Significant change in cytokine quantification, p < 0.05 by Student's T-test.)
- CXCL10, significant change in expression in BALF supernatant [5]: + (+ = Significant change in cytokine quantification, p < 0.05 by Student's T-test.)
- EGF, significant change in expression in BALF supernatant [5]: + (+ = Significant change in cytokine quantification, p < 0.05 by Student's T-test.)
- IFN-γ, significant change in expression in BALF supernatant [5]: + (+ = Significant change in cytokine quantification, p < 0.05 by Student's T-test.)
- IL-1α, significant change in expression in BALF supernatant [5]: + (+ = Significant change in cytokine quantification, p < 0.05 by Student's T-test.)
- IL-1β, significant change in expression in BALF supernatant [5]: + (+ = Significant change in cytokine quantification, p < 0.05 by Student's T-test.)
- IL-5, significant change in expression in BALF supernatant [5]: + (+ = Significant change in cytokine quantification, p < 0.05 by Student's T-test.)
- IL-6, significant change in expression in BALF supernatant [5]: + (+ = Significant change in cytokine quantification, p < 0.05 by Student's T-test.)
- IL-10, significant change in expression in BALF supernatant [5]: + (+ = Significant change in cytokine quantification, p < 0.05 by Student's T-test.)
- IL-12p70, significant change in expression in BALF supernatant [5]: + (+ = Significant change in cytokine quantification, p < 0.05 by Student's T-test.)
- IL-13, significant change in expression in BALF supernatant [5]: + (+ = Significant change in cytokine quantification, p < 0.05 by Student's T-test.)
- IL-17A, significant change in expression in BALF supernatant [5]: + (+ = Significant change in cytokine quantification, p < 0.05 by Student's T-test.)
- TNF-α, significant change in expression in BALF supernatant [5]: + (+ = Significant change in cytokine quantification, p < 0.05 by Student's T-test.)
- Neutrophils in BALF, reduction vs disease control [6]: +++ (key: + = >5% reduction in cell count vs disease control; ++ = >25% reduction in cell count vs disease control; +++ = >75% reduction in cell count vs disease control)
- Total Leukocytes in BALF, reduction vs disease control [6]: +++ (key: + = >5% reduction in cell count vs disease control; ++ = >25% reduction in cell count vs disease control; +++ = >75% reduction in cell count vs disease control)

Compound: CCCCCC(=O)N[C@@H](Cc1ccc(O)cc1)C(=O)N[C@H](C(=O)NCCCCCC(N)=O)[C@@H](C)CC [A19 active metabolite, N-hexanoic-Tyr-Ile-(6)aminohexanoic amide] (Hexanoyl-Tyr-Ile-[Ahx]-NH2)
- Significant reduction in IL-1β ([7]; 0.1 nM): NS
- Significant reduction in IL-6 ([7]; 0.1 nM): NS
- Significant reduction in TNF-α ([7]; 0.1 nM): NS
- Significant reduction in IL-1β ([7]; 10 nM): ++ (indicates a p value<0.01 in Tukey post test)
- Significant reduction in IL-6 ([7]; 10 nM): + (indicates a p value<0.05 in Tukey post test)
- Significant reduction in TNF-α ([7]; 10 nM): + (indicates a p value<0.05 in Tukey post test)
- Significant reduction in IL-1β ([7]; 1000 nM): + (indicates a p value<0.05 in Tukey post test)
- Significant reduction in IL-6 ([7]; 1000 nM): ++ (indicates a p value<0.01 in Tukey post test)
- Significant reduction in TNF-α ([7]; 1000 nM): ++ (indicates a p value<0.01 in Tukey post test)
- expression of IL-1β (in words) ([7]; at at least one tested dose): significantly reduced the expression of IL-1β and TNF-α
- expression of IL-6 (in words) ([7]; at at least one tested dose): significantly reduced the expression of IL-6
- expression of TNF-α (in words) ([7]; at at least one tested dose): significantly reduced the expression of IL-1β and TNF-α
- Significance of neuroprotection vs 1 uM LPS ([8]; 0.1 nM): +++ (+++ indicates p<0.001)
- Significance of neuroprotection vs 1 uM LPS ([8]; 1 nM): ++ (++ indicates p<0.01)
- Significance of neuroprotection vs 1 uM LPS ([8]; 10 nM): +++ (+++ indicates p<0.001)
- Significance of neuroprotection vs 1 uM LPS ([8]; 100 nM): ++ (++ indicates p<0.01)
- Significance of neuroprotection vs 1 uM LPS ([8]; 1 μM): ++ (++ indicates p<0.01)
- protection of primary neurons from LPS-stimulated inflammatory toxicity ([8]; at at least one dose tested): protected primary neurons from LPS-stimulated inflammatory toxicity
- neurite length / extension of neurites (in words) [2]: promoted the extension of neurites
- Significant increase in: Neurite length ([2]; 10 nM, Table 3 study): ++++ (++++ = p < 0.0001)
